Converted amounts (≈) assume the structure as drawn.
System: Aedes aegypti
Assay: Larvicidal activity against second instar larvae of Aedes aegypti
Type: functional

C#CCCCCCCCCCCC1=C[C@H](C)OC1=O
LC50: 0.41 µg/mL (≈ 1.56 µM)

C=CCCCCCCCCCCC1=C[C@H](C)OC1=O
LC50: 0.47 µg/mL (≈ 1.78 µM)
